Experimental data taken from patent US20230331673A1, “COMPOSITION OF COMPOUNDS THAT MODULATE CELL METABOLISM AND METHODS OF USE” (CRESCENTA BIOSCIENCES, priority 2020, published 2023).

System: differentiated 3T3-L1 mouse adipocyte cells
Assay: Adipocyte glucose consumption in differentiated 3T3-L1 mouse adipocyte cells (loss of glucose from medium, colorimetric)
Type: cell-based
Conditions: compound 10 μM, 22 to 24 hours, differentiated 3T3-L1 adipocytes, compound/DMSO, read-out: Glucose consumption (fold change) Mean
Description: Activity of compounds on adipocyte glucose consumption was tested in differentiated 3T3-L1 mouse adipocyte cells. 3T3-L1 preadipocytes (ATCC) were routinely cultured in a growth medium composed of DMEM high-glucose (Sigma), 10% FBS (Gibco), 10 U/ml penicillin and 10 μg/ml streptomycin (P/S; Gibco). To induce adipogenic differentiation, a confluent layer of 3T3-L1 cells were incubated with the growth medium containing 2 μM rosiglitazone, 1 μM dexamethasone, 500 μM IBMX, and 1 μg/ml insulin (Sigma). Forty-eight (48) hours later (on day 2) and on days 4 and 6, medium of the cells was replaced with fresh medium containing 1 μg/ml insulin. On days 8 and 10, the medium was refreshed with regular growth medium and addition of insulin was omitted. On day 11 or 12, medium of the cells were replaced with fresh medium containing either the indicated compounds (10 μM) or the vehicle in which the compounds were dissolved (DMSO). The final concentration of DMSO was 0.1% (v/v). Growth medium containing 0.1% DMSO was incubated in culture wells containing no cells and used as control. Twenty-two to 24 hours later, medium was harvested and subjected to centrifugation at 10,000 g for 5 min. Glucose concentration in the supernatants was determined using a colorimetric assay (Glucose Assay Kit I, Eton Biosciences). Glucose consumption in compound and vehicle treated cells was measured as loss of glucose from the culture medium and represented as mean fold change (compound/DMSO) t standard deviation (SD).

SMILES	fold induction at 10 µM
CCCCC1CCc2c(c3cccc(C(=O)O)c3n2Cc2cccc(C#N)c2)C1 (centres unmarked) [3-butyl-9-[(3-cyanophenyl)methyl]-2,3,4,9-tetrahydro-1H-carbazole-8-carboxylic acid]	1.14
CCCCCC1CCc2c(n(Cc3cccc(C(N)=O)c3)c3c(C(=O)O)cccc23)C1 (centres unmarked) [9-[(3-carbamoylphenyl)methyl]-2-pentyl-2,3,4,9-tetrahydro-1H-carbazole-8-carboxylic acid]	1.13
CCCCCC1CCc2c(c3cccc(C(=O)O)c3n2Cc2cccc(C(N)=O)c2)C1 (centres unmarked) [9-[(3-carbamoylphenyl)methyl]-3-pentyl-2,3,4,9-tetrahydro-1H-carbazole-8-carboxylic acid]	1.08
CCCCC1CCCc2c1c1cccc(C(=O)O)c1n2Cc1cccc(C(N)=O)c1 (centres unmarked) [4-butyl-9-[(3-carbamoylphenyl)methyl]-2,3,4,9-tetrahydro-1H-carbazole-8-carboxylic acid]	1.35
CCC1CCCc2c1c1cccc(C(=O)O)c1n2Cc1cccc(C(N)=O)c1 (centres unmarked) [9-[(3-carbamoylphenyl)methyl]-4-ethyl-2,3,4,9-tetrahydro-1H-carbazole-8-carboxylic acid]	1.21
CCCCCCC1CCCc2c(n(Cc3ccc(C)cc3)c3c(C(=O)O)cccc23)C1 (centres unmarked) [7-hexyl-5-[(4-methylphenyl)methyl]-5H,6H,7H,8H,9H,10H-cyclohepta[b]indole-4-carboxylic acid]	1.05
CCCCCC1CCCc2c1c1cccc(C(=O)O)c1n2Cc1cccc(C#N)c1 (centres unmarked) [9-[(3-cyanophenyl)methyl]-4-pentyl-2,3,4,9-tetrahydro-1H-carbazole-8-carboxylic acid]	1.13
CCCCCCC1CCCc2c(n(Cc3ccc(C#N)s3)c3c(C(=O)O)cccc23)C1 (centres unmarked) [5-[(5-cyanothiophen-2-yl)methyl]-7-hexyl-5H,6H,7H,8H,9H,10H-cyclohepta[b]indole-4-carboxylic acid]	1.05
CCCCCCC1CCc2c(n(Cc3ccnc(OC)c3)c3c(C(=O)O)cccc23)C1 (centres unmarked) [2-hexyl-9-[(2-methoxypyridin-4-yl)methyl]-2,3,4,9-tetrahydro-1H-carbazole-8-carboxylic acid]	1.19
CCCC1CCc2c(c3cccc(C(=O)O)c3n2Cc2cccc(C#N)c2)C1 (centres unmarked) [9-[(3-cyanophenyl)methyl]-3-propyl-2,3,4,9-tetrahydro-1H-carbazole-8-carboxylic acid]	1.2
CCCCCCC1CCCc2c(n(Cc3cccc(C#N)c3)c3c(C(=O)O)cccc23)C1 (centres unmarked) [5-[(3-cyanophenyl)methyl]-7-hexyl-5H,6H,7H,8H,9H,10H-cyclohepta[b]indole-4-carboxylic acid]	1.26
N#Cc1cccc(Cn2c3c(c4cccc(C(=O)O)c42)C(CCc2ccccc2)CCC3)c1 (centres unmarked) [9-[(3-cyanophenyl)methyl]-4-(2-phenylethyl)-2,3,4,9-tetrahydro-1H-carbazole-8-carboxylic acid]	1.1
CCCC1CCCc2c(n(Cc3cccc(C(N)=O)c3)c3c(C(=O)O)cccc23)C1 (centres unmarked) [5-[(3-carbamoylphenyl)methyl]-7-propyl-5H,6H,7H,8H,9H,10H-cyclohepta[b]indole-4-carboxylic acid]	1.06
CCCCCCC1CCc2c(n(Cc3ccccc3F)c3c(C(=O)O)cccc23)C1 (centres unmarked) [9-[(2-fluorophenyl)methyl]-2-hexyl-2,3,4,9-tetrahydro-1H-carbazole-8-carboxylic acid]	1.24
CCCCC1CCCc2c(n(Cc3cccc(C(N)=O)c3)c3c(C(=O)NCC(=O)O)cccc23)C1 (centres unmarked) [2-({7-butyl-5-[(3-carbamoylphenyl)methyl]-5H,6H,7H,8H,9H,10H-cyclohepta[b]indol-4-yl}formamido)acetic acid]	0.9
CCCCC1CCCc2c(n(Cc3cccc(F)c3)c3c(C(=O)O)cccc23)C1 (centres unmarked) [7-butyl-5-[(3-fluorophenyl)methyl]-5H,6H,7H,8H,9H,10H-cyclohepta[b]indole-4-carboxylic acid]	1.12
CCCCC1CCCc2c(n(Cc3cccc(C(N)=O)c3)c3c(C(=O)NCCO)cccc23)C1 (centres unmarked) [7-butyl-5-[(3-carbamoylphenyl)methyl]-N-(2-hydroxyethyl)-5H,6H,7H,8H,9H,10H-cyclohepta[b]indole-4-carboxamide]	0.98
CCCCCC1CCCc2c(n(Cc3cccc(C(N)=O)c3)c3c(C(=O)O)cccc23)C1 (centres unmarked) [5-[(3-carbamoylphenyl)methyl]-7-pentyl-5H,6H,7H,8H,9H,10H-cyclohepta[b]indole-4-carboxylic acid]	1.27
CCC1CCCCc2c1c1cccc(C(=O)O)c1n2Cc1cccc(C(N)=O)c1 (centres unmarked) [5-[(3-carbamoylphenyl)methyl]-10-ethyl-5H,6H,7H,8H,9H,10H-cyclohepta[b]indole-4-carboxylic acid]	0.99
CCCCC1CCCc2c(n(Cc3cccc(C(=O)O)c3)c3c(C(=O)O)cccc23)C1 (centres unmarked) [7-butyl-5-[(3-carboxyphenyl)methyl]-5H,6H,7H,8H,9H,10H-cyclohepta[b]indole-4-carboxylic acid]	0.95
CCCCC1CCCc2c(n(Cc3cccc(C#N)c3)c3c(C(=O)NCCO)cccc23)C1 (centres unmarked) [7-butyl-5-[(3-cyanophenyl)methyl]-N-(2-hydroxyethyl)-5H,6H,7H,8H,9H,10H-cyclohepta[b]indole-4-carboxamide]	1.08
CCCCC1CCCc2c(n(Cc3cccc(O)c3)c3c(C(=O)O)cccc23)C1 (centres unmarked) [7-butyl-5-[(3-hydroxyphenyl)methyl]-5H,6H,7H,8H,9H,10H-cyclohepta[b]indole-4-carboxylic acid]	1.14
CCCCCC1CCCc2c(n(Cc3cccc(C#N)c3)c3c(C(=O)O)cccc23)C1 (centres unmarked) [5-[(3-cyanophenyl)methyl]-7-pentyl-5H,6H,7H,8H,9H,10H-cyclohepta[b]indole-4-carboxylic acid]	1.35
CCC1CCCc2c1n(Cc1cccc(C(N)=O)c1)c1c(C(=O)O)cccc21 (centres unmarked) [9-[(3-carbamoylphenyl)methyl]-1-ethyl-2,3,4,9-tetrahydro-1H-carbazole-8-carboxylic acid]	0.94
CCCCC1CCCc2c(n(Cc3ccccc3C(N)=O)c3c(C(=O)O)cccc23)C1 (centres unmarked) [7-butyl-5-[(2-carbamoylphenyl)methyl]-5H,6H,7H,8H,9H,10H-cyclohepta[b]indole-4-carboxylic acid]	1.11
CCCCC1CCCc2c(n(Cc3cccc(C#N)c3)c3c(C(=O)O)cccc23)C1 (centres unmarked) [7-butyl-5-[(3-cyanophenyl)methyl]-5H,6H,7H,8H,9H,10H-cyclohepta[b]indole-4-carboxylic acid]	1.29
CCCC1CCc2c(c3cccc(C(=O)O)c3n2Cc2cccc(C(N)=O)c2)C1 (centres unmarked) [9-[(3-carbamoylphenyl)methyl]-3-propyl-2,3,4,9-tetrahydro-1H-carbazole-8-carboxylic acid]	1.1
CCCCCC1Cc2c(n(Cc3cccc(C#N)c3)c3c(C(=O)O)cccc23)C1 (centres unmarked) [4-[(3-cyanophenyl)methyl]-2-pentyl-1H,2H,3H,4H-cyclopenta[b]indole-5-carboxylic acid]	1.18
CCCCCCCCC1CCCc2c(n(Cc3cccc(C(N)=O)c3)c3c(C(=O)O)cccc23)C1 (centres unmarked) [5-[(3-carbamoylphenyl)methyl]-7-octyl-5H,6H,7H,8H,9H,10H-cyclohepta[b]indole-4-carboxylic acid]	1.13
